# Data as given in patent publication US20110263699A1 (priority 2002, published 2011).
# Structures can show the parent of a compound that is named as a salt.
# Key:
# [1] = biological target: NA uptake (Homo sapiens, UniProt P23975); assay: biochemical; details: read-out: NA uptake inhibition Ki values
# [2] = biological target: T1, μ-Opioid receptor (Homo sapiens, UniProt P35372); assay: μ-Opioid receptor binding (human)
# Target sequence in this assay (P35372 whole entry): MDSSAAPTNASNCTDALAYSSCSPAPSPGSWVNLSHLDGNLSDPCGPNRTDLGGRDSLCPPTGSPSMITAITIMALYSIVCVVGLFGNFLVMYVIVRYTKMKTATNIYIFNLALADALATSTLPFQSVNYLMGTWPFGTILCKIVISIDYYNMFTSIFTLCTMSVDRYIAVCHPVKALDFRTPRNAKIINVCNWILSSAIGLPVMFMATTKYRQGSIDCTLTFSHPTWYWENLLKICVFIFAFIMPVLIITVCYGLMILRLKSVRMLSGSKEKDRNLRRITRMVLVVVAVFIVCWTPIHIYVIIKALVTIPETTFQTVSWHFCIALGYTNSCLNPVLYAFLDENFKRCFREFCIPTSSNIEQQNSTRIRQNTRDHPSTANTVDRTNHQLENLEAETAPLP
# [3] = biological target: 5HT uptake (Homo sapiens, UniProt P31645); assay: biochemical; details: read-out: 5HT uptake inhibition Ki values
# Chain of 5HT uptake (P31645 whole entry): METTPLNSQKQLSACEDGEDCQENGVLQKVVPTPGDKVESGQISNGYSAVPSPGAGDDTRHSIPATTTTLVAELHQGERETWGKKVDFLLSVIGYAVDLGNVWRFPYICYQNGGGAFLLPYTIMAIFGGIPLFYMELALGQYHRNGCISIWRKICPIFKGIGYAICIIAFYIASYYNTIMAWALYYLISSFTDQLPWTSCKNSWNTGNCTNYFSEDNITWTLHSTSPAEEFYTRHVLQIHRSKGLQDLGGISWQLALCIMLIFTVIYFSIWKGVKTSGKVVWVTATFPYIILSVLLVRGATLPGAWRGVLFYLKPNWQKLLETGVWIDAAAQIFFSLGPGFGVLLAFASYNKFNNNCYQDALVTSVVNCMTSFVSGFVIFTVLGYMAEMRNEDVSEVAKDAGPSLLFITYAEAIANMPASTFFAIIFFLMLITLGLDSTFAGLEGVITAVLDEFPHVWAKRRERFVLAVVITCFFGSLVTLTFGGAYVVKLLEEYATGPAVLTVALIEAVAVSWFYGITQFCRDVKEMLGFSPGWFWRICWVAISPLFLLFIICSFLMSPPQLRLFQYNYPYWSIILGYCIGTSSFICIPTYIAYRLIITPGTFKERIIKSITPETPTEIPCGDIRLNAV
# [4] = biological target: T1, μ-Opioid receptor; assay: μ-Opioid receptor binding (species not given)
# Target sequence in this assay (P35372 whole entry, species assumed): as the sequence (P35372 whole entry) above
# [5] = system: duration of immobility; assay: Tail suspension test on mice; type: in vivo
# From the text: Rodents left hanging by the tail rapidly become immobile. Antidepressants reduce the duration of the immobility, while tranquilizers prolong the duration of the immobility. […] Several mice were investigated in parallel and the duration of immobility determined. […] 10-20 mice were investigated per group. […] In this behavioural model, antidepressants, as also in other behavioural models, lead to a shortening of the immobility phase, while opioids such as morphine prolong the immobility phase.
# [6] = biological target: μ-Opioid receptor (Rattus norvegicus, UniProt P33535); assay: μ-Opioid receptor binding (rat)
# Chain of μ-Opioid receptor (Rattus norvegicus, UniProt P33535) (P33535 whole entry): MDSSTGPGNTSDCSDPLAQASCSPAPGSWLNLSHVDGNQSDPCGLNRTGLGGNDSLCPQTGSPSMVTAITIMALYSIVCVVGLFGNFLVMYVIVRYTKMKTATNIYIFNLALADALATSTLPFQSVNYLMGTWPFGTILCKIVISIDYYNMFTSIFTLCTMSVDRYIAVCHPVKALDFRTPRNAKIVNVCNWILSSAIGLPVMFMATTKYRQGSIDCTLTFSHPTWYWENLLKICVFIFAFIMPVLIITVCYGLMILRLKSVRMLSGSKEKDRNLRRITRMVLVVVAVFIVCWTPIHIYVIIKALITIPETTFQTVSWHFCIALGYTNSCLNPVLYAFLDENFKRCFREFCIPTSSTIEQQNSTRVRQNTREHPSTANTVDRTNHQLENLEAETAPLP
# [7] = 4.64 mg/kg i.p., 30 minutes before the test
# Chain of NA uptake (P23975 whole entry): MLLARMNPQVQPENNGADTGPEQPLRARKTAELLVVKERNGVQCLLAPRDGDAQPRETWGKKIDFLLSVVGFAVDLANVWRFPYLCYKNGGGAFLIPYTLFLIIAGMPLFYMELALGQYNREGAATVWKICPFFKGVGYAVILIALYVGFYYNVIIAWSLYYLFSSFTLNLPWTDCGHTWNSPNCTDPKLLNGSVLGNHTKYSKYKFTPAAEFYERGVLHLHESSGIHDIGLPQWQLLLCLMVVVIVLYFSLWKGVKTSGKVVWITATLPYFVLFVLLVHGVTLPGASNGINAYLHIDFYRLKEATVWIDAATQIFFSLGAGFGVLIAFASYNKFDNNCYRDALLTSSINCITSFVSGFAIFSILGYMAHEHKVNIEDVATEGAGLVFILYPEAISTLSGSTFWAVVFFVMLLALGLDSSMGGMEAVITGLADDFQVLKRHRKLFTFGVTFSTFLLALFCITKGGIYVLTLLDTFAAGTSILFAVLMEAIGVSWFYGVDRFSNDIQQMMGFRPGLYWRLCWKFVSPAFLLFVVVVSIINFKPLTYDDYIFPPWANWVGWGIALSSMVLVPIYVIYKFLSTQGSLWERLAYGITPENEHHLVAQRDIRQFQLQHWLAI
smiles,measurement,setting,value
"CNC[C@@H]1CCCC[C@H]1c1cccc(O)c1 [(1R,2R)-3-(2-methylaminomethyl-cyclohexyl)-phenol, hydrochloride]",Ki,[1],560 nM
same,Ki,[2],910 nM
same,Ki,[3],9410 nM
"CNCCCN1c2ccccc2CCc2ccccc21 [Desipramine, desipramine]",μ-Opioid receptor Ki values,[4],inactive
"CN(C)CCCN1c2ccccc2CCc2ccccc21 [Imipramine, imipramine]",Duration of immobility % change compared with the solvent control,"[5]; 31.6 mg/kg i.p., 30 minutes before the test",−61%
"CN1CC[C@]23c4c5ccc(O)c4O[C@H]2[C@@H](O)C=C[C@H]3[C@H]1C5 [Morphine, morphine]",Duration of immobility % change compared with the solvent control,[5]; [7],+90%
same,Duration of immobility % change compared with the solvent control,"[5]; 10.0 mg/kg i.p., 30 minutes before the test",+145%
same,Duration of immobility % change compared with the solvent control,"[5]; 21.5 mg/kg i.p., 30 minutes before the test",+169%
"C=CCN1CC[C@]23c4c5ccc(O)c4O[C@H]2C(=O)CC[C@@]3(O)[C@H]1C5 [Naloxone, naloxone]",Duration of immobility % change compared with the solvent control,[5]; 1.0 mg/kg i.v.,−15%
"CNCCC(Oc1ccc(C(F)(F)F)cc1)c1ccccc1 (stereo not shown) [Fluoxetine, fluoxetine]",μ-Opioid receptor Ki values,[4],inactive
"CN(C)C[C@@H]1CCCC[C@H]1c1cccc(O)c1.Cl [(1R,2R)-3-(2-dimethylaminomethyl-cyclohexyl)-phenol; hydrochloride]",Ki,[1],160 nM
same,Ki,[6],38 nM
same,Duration of immobility % change compared with the solvent control,[5]; [7],+6%
same,Duration of immobility (in words),[5]; after pretreatment with naloxone,marked decrease in the duration of immobility
same,Duration of immobility compared with the solvent control (in words),[5]; without naloxone pretreatment,only a slight change in the duration of immobility
same,Ki,[3],50 nM
